Patent US20150191469A1, “COMPOUNDS AND METHODS FOR TREATING HIV” (priority 2012, published 2015)
pIC50: −log10 of the molar value.

tested on: HIV; assay: MT4 assay: antiviral HIV activity (cell protection, cell titer glo readout at 96 hours); format: cell-based; conditions: Human immunodeficiency virus 1, MT4, 96 h, MT4 cells, cell titer glo readout at 96 hours, 10 point dose response; read-out: HIV MT4 Assay IC50
In short: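 MT-4 cells infected with HIV, with inhibition readout by CellTiter-Glo luminescence at 96 h relative to no-compound control. Cytotoxicity measured in parallel under the same conditions. IC50 from a 10-point, 3-4-fold dilution series spanning >1000-fold, fitted with a four-parameter logistic equation.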

Row | SMILES | pIC50
1 | Cc1nc2c(cc(-c3nnc(N4CCCOCC4)o3)n2C)c(-c2cc(F)c3c(c2C)CCCO3)c1[C@H](OC(C)(C)C)C(=O)O [Example 350] | 7.92
2 | Cc1nc2c(cc(-c3nnc(N4CC5CCC(C4)O5)o3)n2C)c(-c2cc(F)c3c(c2C)CCCO3)c1[C@H](OC(C)(C)C)C(=O)O [Example 353] | 8.15
3 | Cc1nc2c(cc(-c3cncc(N4CCN(C5CCOCC5)CC4)n3)n2C)c(-c2cc(F)c3c(c2C)CCCO3)c1[C@H](OC(C)(C)C)C(=O)O [Example 360] | 7.51
4 | Cc1nc2c(cc(-c3cncc(N4CCN(C5CCOCC5)CC4)c3)n2C)c(-c2cc(F)c3c(c2C)CCCO3)c1[C@H](OC(C)(C)C)C(=O)O [Example 361] | 7.83
5 | Cc1nc2c(cc(-c3ccnc(N4CCN(C5CCOCC5)CC4)n3)n2C)c(-c2cc(F)c3c(c2C)CCCO3)c1[C@H](OC(C)(C)C)C(=O)O [Example 363] | 8.00
6 | Cc1nc2c(cc(-c3cc(NCCN4CCOCC4)ncn3)n2C)c(-c2cc(F)c3c(c2C)CCCO3)c1[C@H](OC(C)(C)C)C(=O)O [Example 365] | 7.06
7 | Cc1nc2c(cc(-c3cc(NCCC(C)(C)C)ncn3)n2C)c(-c2cc(F)c3c(c2C)CCCO3)c1[C@H](OC(C)(C)C)C(=O)O [Example 366] | 7.82
8 | Cc1nc2c(cc(-c3nsc(N4CCNCC4)n3)n2C)c(-c2cc(F)c3c(c2C)CCCO3)c1[C@H](OC(C)(C)C)C(=O)O [Example 367] | 7.76
9 | Cc1nc2c(cc(-c3nc(N4CCCCC4)ns3)n2C)c(-c2cc(F)c3c(c2C)CCCO3)c1[C@H](OC(C)(C)C)C(=O)O [Example 368] | 7.40
10 | Cc1nc2c(cc(-c3nc(N4CCN(C)CC4)ns3)n2C)c(-c2cc(F)c3c(c2C)CCCO3)c1[C@H](OC(C)(C)C)C(=O)O [Example 369] | 7.95
11 | Cc1nc2c(cc(-c3nsc(N4CCCCC4)n3)n2C)c(-c2cc(F)c3c(c2C)CCCO3)c1[C@H](OC(C)(C)C)C(=O)O [Example 370] | 8.02
12 | Cc1nc2c(cc(-c3nsc(N4CCN(C)CC4)n3)n2C)c(-c2cc(F)c3c(c2C)CCCO3)c1[C@H](OC(C)(C)C)C(=O)O [Example 371] | 8.08
13 | Cc1nc2c(cc(-c3nc(N4CCC(C)CC4)ns3)n2C)c(-c2cc(F)c3c(c2C)CCCO3)c1[C@H](OC(C)(C)C)C(=O)O [Example 372] | 7.44
14 | Cc1nc2c(cc(-c3nsc(N4CCC(C)CC4)n3)n2C)c(-c2cc(F)c3c(c2C)CCCO3)c1[C@H](OC(C)(C)C)C(=O)O [Example 374] | 7.97
15 | Cc1nc2c(cc(-c3nnc(N4CCN(C5CCOCC5)CC4)s3)n2C)c(-c2cc(F)c3c(c2C)CCCO3)c1[C@H](OC(C)(C)C)C(=O)O [Example 376] | 7.84
16 | Cc1nc2c(cc(-c3nc(N4CCN(C5CC5)CC4)ns3)n2C)c(-c2cc(F)c3c(c2C)CCCO3)c1[C@H](OC(C)(C)C)C(=O)O [Example 385] | 8.00

Row | SMILES | pIC50
17 | Cc1nc2c(cc(-c3nc(N4CCC(N5CCCCC5)CC4)ns3)n2C)c(-c2cc(F)c3c(c2C)CCCO3)c1[C@H](OC(C)(C)C)C(=O)O [Example 387] | 8.16
18 | Cc1nc2c(cc(-c3nc(N4CCN(C(=O)N5CCOCC5)CC4)ns3)n2C)c(-c2cc(F)c3c(c2C)CCCO3)c1[C@H](OC(C)(C)C)C(=O)O [Example 388] | 8.03
19 | Cc1nc2c(cc(-c3nc(N4CCN(C(=O)C5CCOCC5)CC4)ns3)n2C)c(-c2cc(F)c3c(c2C)CCCO3)c1[C@H](OC(C)(C)C)C(=O)O [Example 391] | 7.85
20 | Cc1nc2c(cc(-c3nc(N4CCN(S(=O)(=O)N5CCCCC5)CC4)ns3)n2C)c(-c2cc(F)c3c(c2C)CCCO3)c1[C@H](OC(C)(C)C)C(=O)O [Example 394] | 7.79
21 | COC1CCN(c2nsc(-c3cc4c(-c5cc(F)c6c(c5C)CCCO6)c([C@H](OC(C)(C)C)C(=O)O)c(C)nc4n3C)n2)CC1 [Example 395] | 7.88
22 | Cc1nc2c(cc(-c3nc(N4CCC(N(C)C)CC4)ns3)n2C)c(-c2cc(F)c3c(c2C)CCCO3)c1[C@H](OC(C)(C)C)C(=O)O [Example 396] | 7.81
23 | Cc1nc2c(cc(-c3nc(N4CCCN(C)CC4)ns3)n2C)c(-c2cc(F)c3c(c2C)CCCO3)c1[C@H](OC(C)(C)C)C(=O)O [Example 398] | 7.87
24 | Cc1nc2c(cc(-c3nc(N4CCC(F)CC4)ns3)n2C)c(-c2cc(F)c3c(c2C)CCCO3)c1[C@H](OC(C)(C)C)C(=O)O [Example 399] | 7.54
25 | Cc1nc2c(cc(-c3nc(N4CC[C@@H](N(C)C)C4)ns3)n2C)c(-c2cc(F)c3c(c2C)CCCO3)c1[C@H](OC(C)(C)C)C(=O)O [Example 401] | 7.89
26 | Cc1nc2c(cc(-c3nc(N4CCC(N5CCCC5)CC4)ns3)n2C)c(-c2cc(F)c3c(c2C)CCCO3)c1[C@H](OC(C)(C)C)C(=O)O [Example 402] | 7.82
27 | Cc1nc2c(cc(-c3nc(N4CCC4)ns3)n2C)c(-c2cc(F)c3c(c2C)CCCO3)c1[C@H](OC(C)(C)C)C(=O)O [Example 403] | 7.89
28 | COC[C@@H]1CCCN1c1nsc(-c2cc3c(-c4cc(F)c5c(c4C)CCCO5)c([C@H](OC(C)(C)C)C(=O)O)c(C)nc3n2C)n1 [Example 404] | 7.89
29 | Cc1nc2c(cc(-c3nc(NCCS(C)(=O)=O)ns3)n2C)c(-c2cc(F)c3c(c2C)CCCO3)c1[C@H](OC(C)(C)C)C(=O)O [Example 406] | 7.41
30 | Cc1nc2c(cc(-c3nc(NC4CCOCC4)ns3)n2C)c(-c2cc(F)c3c(c2C)CCCO3)c1[C@H](OC(C)(C)C)C(=O)O [Example 407] | 7.60
31 | Cc1nc2c(cc(/C=C/C(=O)NCC3CCCCC3)n2C)c(-c2cc(F)c3c(c2C)CCCO3)c1[C@H](OC(C)(C)C)C(=O)O [Example 414] | 7.77
32 | Cc1nc2c(cc(/C=C/C(=O)NCC3CC3)n2C)c(-c2cc(F)c3c(c2C)CCCO3)c1[C@H](OC(C)(C)C)C(=O)O [Example 415] | 7.40

Next, values leading:

Row | pIC50 | SMILES
33 | 8.51 | Cc1nc2c(cc(-c3nnc(N4CCN5CCC[C@H]5C4)o3)n2C)c(-c2cc(F)c3c(c2C)CCCO3)c1[C@H](OC(C)(C)C)C(=O)O [Example 348]
34 | 8.52 | COC[C@@H]1CCCN1c1nnc(-c2cc3c(-c4cc(F)c5c(c4C)CCCO5)c([C@H](OC(C)(C)C)C(=O)O)c(C)nc3n2C)o1 [Example 349]
35 | 8.70 | Cc1nc2c(cc(-c3nnc(N4C[C@H](C)O[C@@H](C)C4)o3)n2C)c(-c2cc(F)c3c(c2C)CCCO3)c1[C@H](OC(C)(C)C)C(=O)O [Example 351]
36 | 8.26 | Cc1nc2c(cc(-c3nnc(N4CCOC(C)(C)C4)o3)n2C)c(-c2cc(F)c3c(c2C)CCCO3)c1[C@H](OC(C)(C)C)C(=O)O [Example 352]
37 | 8.39 | Cc1nc2c(cc(-c3cc(N4CCN(C5CCOCC5)CC4)ncn3)n2C)c(-c2cc(F)c3c(c2C)CCCO3)c1[C@H](OC(C)(C)C)C(=O)O [Example 359]
38 | 8.24 | Cc1nc2c(cc(-c3cc(N4CCN(C5CCOCC5)CC4)ccn3)n2C)c(-c2cc(F)c3c(c2C)CCCO3)c1[C@H](OC(C)(C)C)C(=O)O [Example 362]
39 | 8.28 | Cc1nc2c(cc(-c3nsc(N4CCN(C5CC5)CC4)n3)n2C)c(-c2cc(F)c3c(c2C)CCCO3)c1[C@H](OC(C)(C)C)C(=O)O [Example 373]
40 | 8.82 | Cc1nc2c(cc(-c3nsc(N4CCN(C5CCOCC5)CC4)n3)n2C)c(-c2cc(F)c3c(c2C)CCCO3)c1[C@H](OC(C)(C)C)C(=O)O [Example 375]
41 | 8.23 | Cc1nc2c(cc(-c3nc(N4CCC5(CC4)OCCO5)ns3)n2C)c(-c2cc(F)c3c(c2C)CCCO3)c1[C@H](OC(C)(C)C)C(=O)O [Example 377]
42 | 8.39 | Cc1nc2c(cc(-c3nc(N4CCN(C5CCOCC5)C[C@H]4C)ns3)n2C)c(-c2cc(F)c3c(c2C)CCCO3)c1[C@H](OC(C)(C)C)C(=O)O [Example 378]
43 | 8.80 | Cc1nc2c(cc(-c3nc(N4CCC(N5CCOCC5)CC4)ns3)n2C)c(-c2cc(F)c3c(c2C)CCCO3)c1[C@H](OC(C)(C)C)C(=O)O [Example 380]
44 | 8.57 | Cc1nc2c(cc(-c3nc(N4CCN5CCC[C@@H]5C4)ns3)n2C)c(-c2cc(F)c3c(c2C)CCCO3)c1[C@H](OC(C)(C)C)C(=O)O [Example 381]
45 | 8.39 | Cc1nc2c(cc(-c3nc(N4CCN5CCC[C@H]5C4)ns3)n2C)c(-c2cc(F)c3c(c2C)CCCO3)c1[C@H](OC(C)(C)C)C(=O)O [Example 383]
46 | 8.29 | Cc1nc2c(cc(-c3nc(N4CCN(C(=O)N5CCCCC5)CC4)ns3)n2C)c(-c2cc(F)c3c(c2C)CCCO3)c1[C@H](OC(C)(C)C)C(=O)O [Example 384]
47 | 8.23 | Cc1nc2c(cc(-c3nc(N4CCN(CC5CC5)CC4)ns3)n2C)c(-c2cc(F)c3c(c2C)CCCO3)c1[C@H](OC(C)(C)C)C(=O)O [Example 386]
48 | 8.25 | Cc1nc2c(cc(-c3nc(N4CCC(N5CCN(C)CC5)CC4)ns3)n2C)c(-c2cc(F)c3c(c2C)CCCO3)c1[C@H](OC(C)(C)C)C(=O)O [Example 389]
49 | 8.27 | Cc1nc2c(cc(-c3nc(N4CCN(CC5CCOCC5)CC4)ns3)n2C)c(-c2cc(F)c3c(c2C)CCCO3)c1[C@H](OC(C)(C)C)C(=O)O [Example 390]
50 | 8.31 | Cc1nc2c(cc(-c3nc(N4CCN(S(=O)(=O)N5CCOCC5)CC4)ns3)n2C)c(-c2cc(F)c3c(c2C)CCCO3)c1[C@H](OC(C)(C)C)C(=O)O [Example 392]
51 | 8.38 | Cc1nc2c(cc(-c3nc(N4CCN(S(=O)(=O)C5CCOCC5)CC4)ns3)n2C)c(-c2cc(F)c3c(c2C)CCCO3)c1[C@H](OC(C)(C)C)C(=O)O [Example 393]
52 | 8.20 | Cc1nc2c(cc(-c3nc(N4CCN(C(C)C)CC4)ns3)n2C)c(-c2cc(F)c3c(c2C)CCCO3)c1[C@H](OC(C)(C)C)C(=O)O [Example 400]
53 | 8.57 | Cc1nc2c(cc(-c3nc(N4CCN(CCN5CCOCC5)CC4)ns3)n2C)c(-c2cc(F)c3c(c2C)CCCO3)c1[C@H](OC(C)(C)C)C(=O)O [Example 405]
54 | 8.57 | Cc1nc2c(cc(-c3csc(N4CCN(C5CCOCC5)CC4)n3)n2C)c(-c2cc(F)c3c(c2C)CCCO3)c1[C@H](OC(C)(C)C)C(=O)O [Example 408]

same assay, conditions: MT4 cells, cell titer glo readout at 96 hours, 10 point dose response; read-out: HIV MT4 Assay IC50

Row | pIC50 | SMILES
55 | 6.68 | Cc1nc2c(cc(-c3nc(N4CCN(C5CCOCC5)CC4)ns3)n2C)c(-c2cc(F)c3c(c2C)CCCO3)c1[C@H](OC(C)(C)C)C(=O)O [Example 379]
